In patent publication US20170355959A1, “METHODS FOR MOBILISING POPULATIONS OF STEM CELLS” (Imperial Innovations Limited, priority 2014, published 2017):

What was measured:
CFU-Fs (MSPCs) = assay: Mobilization of MSPCs into peripheral blood (CFU-F assay); format: in vivo, mice
free fatty acids = assay: Free fatty acid assay in blood plasma; format: in vivo, mice; conditions: treatment over 4 days
Experimental: Mice were administered the β-adrenergic agonists isoproterenol (10 mg/kg i.p.), clenbuterol (5 mg/kg i.p.) and BRL 37344 (10 mg/kg i.p.), the cannabinoid receptor agonists ACEA (10 mg/kg i.p.) and GP1a (5 mg/kg i.p.), or vehicle either on 4 consecutive days or 2 hours prior to the cull. 1 hour after the last injection, mice were administered the CXCR4 antagonist AMD3100 (5 mg/kg i.p.) or vehicle. 1 hour later their blood was collected via cardiac puncture for enumeration of circulating CFU-HPCs and CFU-Fs. Mice were administered murine G-CSF (100 μg/kg i.p.) or vehicle on 4 consecutive days. On day 5, blood was collected via cardiac puncture for enumeration of circulating HSPCs.
Free fatty acid content in blood plasma was quantified using a serum/plasma fatty acid detection Kit (Zen Bio) and the assay was performed according to the manufacturers' instructions. Data are expressed as μM concentration of free fatty acids.

[1] = tested on: endocannabinoids and N-acyl ethanolamides; assay: Lipid mediator quantification in bone marrow by UPLC/ESI-MS/MS; format: in vivo, mice
Experimental: Plasma and bone marrow flush (pool of 3 mice, n=1) were processed in order for the extraction of endocannabinoids and congeners (Astarita and Piomelli, 2009; Kingsley and Marnett, 2009). Samples were analysed on an electrospray (ESI) tandem quadrupole Xevo TQ-S mass spectrometer (MS/MS; Waters) coupled to an Acquity Ultrahigh Pressure Chromatography (UPLC) system, and the concentration of analytes was calculated (TargetLynx). Further details concerning extraction and analysis can be found in the Supplemental Experimental Procedures.
Bone marrow flushed from the femurs of 3 mice were pooled (6 ml in total) per treatment to give an n=1 sample. This volume was required to achieve sufficient concentrations of endocannabinoids and N-acyl ethanolamides for detection by UPLC/ESI-MS/MS. Extraction of lipids was carried out by addition of chloroform:methanol (2:1, v/v) (Astarita and Piomelli, 2009; Kingsley and Mamett, 2009). Specifically, ice cold chloroform:methanol was added to each bone marrow supernatant (ml per pooled bone marrow sample), followed by the internal standards AEA-d8 (20 ng) and 2AG-d8 (40 ng). The resulting suspensions were kept on ice for 30 min with occasional vortexing and centrifuged at 5000 rpm for 8 min, to separate the organic and aqueous phases. The organic layer (bottom) from each sample was then removed into a clean vial. The supernatant was evaporated under a fine stream of nitrogen. Once dried the extract was reconstituted in 1 ml of chloroform and semi-purified by SPE (Guo et al, 2010). Briefly, the silica cartridge was equilibrated with 5×1 ml cholorform, the extract was applied, the cartridge was washed with 2×1 ml chloroform and the endocannabinoids eluted with 5×1 ml chloroform:methanol (2:1 v/v). The remaining residue, reconstituted in 100 μL ethanol was stored at −20° C., for no more than 1 week, awaiting UPLC/ESI-MS/MS analysis.
All analysis was performed on an electrospray (ESI) tandem quadrupole Xevo TQ-S mass spectrometer (Waters) coupled to an Acquity Ultrahigh Pressure Chromatography (UPLC) system. The system was controlled by MassLynx v4.1 Software. TargetLynx was used to construct calibration lines and calculate the concentration of analytes of interest. Optimised ESI-MS/MS conditions were achieved through the use of Intellistart within MassLynx software. Individual standards (100 pg/μl) were introduced into the spectrometer by direct infusion via the Xevo TQ-S integrated syringe pump (flow rate 10 μl/min) combined with UPLC solvent flow (rate 0.2 mL/min). All analytes were monitored on the positive ionisation mode. Capillary voltage was set at 2000V, source temperature at 150° C., desolvation temperature at 400° C. and the cone voltage at 20 V. […]

HPCs = assay: In situ perfusion of mouse hind limb, CFU-HPCs in perfusate; format: in vivo, mice; conditions: four day pretreatment, b3 adrenergic agonist in combination with FAAH inhibitor
Experimental: Mice were administered BRL 37344 (10 mg/kg i.p.) or vehicle on 4 consecutive days. 1 hour after the last injection, the mice were anaesthetized. The femoral vein and artery were exposed and cannulated in situ immediately after the hind limb was isolated by occlusion of the surrounding arteries as previously described (Pitchford et al, 2009; Pitchford et al, 2010). Perfusion buffer was infused via the arterial cannula and removed from the venous cannula using a Minipuls Peristaltic Pump (Anachem). The hind limb was initially infused with AMD3100 (0.1 mM) or vehicle for 10 minutes using an infusion/withdrawal pump (Harvard Instruments) and was further perfused for 50 minutes with perfusion buffer (Pitchford et al, 2010). The perfusate was collected over 60 minutes and then centrifuged and resuspended in DMEM (Gibco) +20% fetal bovine serum for enumeration of CFU-HPCs and CFU-Fs.
Harvested peripheral blood or perfusate was red blood cell-lysed and 1×10^5 cells were added to tissue culture-treated petri dishes containing 1 ml of Methocult™ (M3434; StemCell Technologies) to select for CFU-HPCs. Cultures were incubated at 37° C. and quantified on day 12. Similarly, 1×10^6 bone marrow cells harvested by bone marrow flush of the hind limb femur were plated for CFU-HPCs.

HSPCs = assay: Mobilization of HSPCs into peripheral blood (CFU-HPC assay); format: in vivo; conditions: mice pre-treated with 0-30 mg/kg BRL37344 for 4 days
[2] = 4 days, in combination with FAAH inhibition, versus FAAH inhibition only

With C[C@H](Cc1ccc(OCC(=O)O)cc1)NC[C@H](O)c1cccc(Cl)c1 [BRL37344] the “pre-treatment time needed for CFU-F mobilization” value (CFU-Fs (MSPCs); 2 h versus 4 d pre-treatment, then AMD3100) was “required the pre-treatment of mice over 4 days to see this effect”, the “dose dependence of CFU-F mobilization in response to the CXCR4 antagonist” value (CFU-Fs (MSPCs); mouse, in vivo) was “dose response relationship” and the “circulating CFU-Fs” value (CFU-Fs (MSPCs); pre-treated once daily for 4 days, then AMD3100, blood 1 hour later) was “significantly boosted circulating numbers of HSPCs and CFU-Fs as compared to that observed with isoproterenol and AMD3100 in combination”. For the same molecule, the “FFA levels in plasma” value (free fatty acids) was “an increase”, the “bone marrow levels of 2-AG” value [1, 2] was “significantly increased” and the “bone marrow levels of DHEA” value [1, 2] was “significantly increased”. The “bone marrow levels of PEA” value [1, 2] was “significantly increased”, the “bone marrow levels of other N-acyl ethanolamides, including AEA” value ([1]; following administration in vivo) was “remained unchanged” and the “HPC egress from the bone marrow in response to infusion of the CXCR4 antagonist” value (HPCs) was “significantly enhanced both HPC and MSC egress from the bone marrow”. For the same molecule, the “dose dependence of HSPC mobilization in response to the CXCR4 antagonist” value (HSPCs) was “dose response relationship”.
